Test results from ChEMBL document CHEMBL1201862, “PubChem BioAssay data set” (2004).
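The compound was tested at five concentrations on cells cultured in 96-well plates, with a 48-hour exposure period. GI50 is the concentration that inhibits growth by half.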 Calls of active or inactive are those of the source. Cut-off read from the data, not from the text of the source: active = GI50 up to about 1.1 µM and inactive = higher.

What was measured:
Assay in all cases: growth of human tumour cells (NCI), 48 h
OVCAR-4 = system: OVCAR-4
NCI-H23 = system: NCI-H23
M14 = system: M14
BT-549 = system: BT-549
NCI-H226 = system: NCI-H226
K562 = system: K562
786-0 = system: 786-0
Malme-3M = system: Malme-3M
DU-145 = system: DU-145
Hs-578T = system: Hs-578T
UO-31 = system: UO-31
TK-10 = system: TK-10
NCI/ADR-RES = system: NCI/ADR-RES
HCT-116 = system: HCT-116
HCT-15 = system: HCT-15
U-251 = system: U-251
IGROV-1 = system: IGROV-1
ACHN = system: ACHN
SK-MEL-2 = system: SK-MEL-2
SK-MEL-5 = system: SK-MEL-5
CCRF-CEM = system: CCRF-CEM
A549 = system: A549
NCI-H460 = system: NCI-H460
T47D = system: T47D
RXF 393 = system: RXF 393
CAKI-1 = system: CAKI-1
SF-268 = system: SF-268
SW-620 = system: SW-620
SN12C = system: SN12C
OVCAR-5 = system: OVCAR-5
MOLT-4 = system: MOLT-4
OVCAR-8 = system: OVCAR-8
PC-3 = system: PC-3
SK-MEL-28 = system: SK-MEL-28
MDA-MB-231 = system: MDA-MB-231
HL-60 = system: HL-60
SR = system: SR
SK-OV-3 = system: SK-OV-3
COLO 205 = system: COLO 205
HCC 2998 = system: HCC 2998
MCF7 = system: MCF7
SF-295 = system: SF-295
SNB-75 = system: SNB-75
MDA-N = system: MDA-N
SNB-19 = system: SNB-19
NCI-H522 = system: NCI-H522
UACC-62 = system: UACC-62
UACC-257 = system: UACC-257
MDA-MB-435 = system: MDA-MB-435
KM12 = system: KM12
HOP-62 = system: HOP-62
SF-539 = system: SF-539
RPMI-8226 = system: RPMI-8226
HOP-92 = system: HOP-92
HT-29 = system: HT-29
OVCAR-3 = system: OVCAR-3
A498 = system: A498
LOX IMVI = system: LOX IMVI
EKVX = system: EKVX

In the case of `O=C1CC(=O)NC(NNS(=O)(=O)c2ccc(Cl)cc2)=N1`, the GI50 (OVCAR-4) is reported as > 100 µM (inactive), the GI50 (NCI-H23) is reported as > 100 µM (inactive) and the GI50 (M14) is reported as > 100 µM (inactive). For the same compound, the GI50 (BT-549) was > 100 µM (inactive), the GI50 (NCI-H226) was > 100 µM (inactive) and the GI50 (K562) was > 100 µM (inactive). For the same compound, the GI50 (786-0) was > 100 µM (inactive), the GI50 (Malme-3M) was > 100 µM (inactive) and the GI50 (DU-145) was > 100 µM (inactive). For the same compound, the GI50 (Hs-578T) was > 100 µM (inactive), the GI50 (UO-31) was > 100 µM (inactive) and the GI50 (TK-10) was > 100 µM (inactive). For the same compound, the GI50 (NCI/ADR-RES) was > 100 µM (inactive), the GI50 (HCT-116) was > 100 µM (inactive) and the GI50 (HCT-15) was > 100 µM. For the same compound, the GI50 (U-251) was > 100 µM (inactive), the GI50 (IGROV-1) was > 100 µM (inactive) and the GI50 (ACHN) was > 100 µM (inactive). For the same compound, the GI50 (SK-MEL-2) was > 100 µM (inactive), the GI50 (SK-MEL-5) was > 100 µM (inactive) and the GI50 (CCRF-CEM) was 63.1 µM (inactive). For the same compound, the GI50 (A549) was > 100 µM (inactive), the GI50 (NCI-H460) was > 100 µM (inactive) and the GI50 (T47D) was > 100 µM (inactive). For the same compound, the GI50 (RXF 393) was > 100 µM (inactive), the GI50 (CAKI-1) was > 100 µM (inactive) and the GI50 (SF-268) was > 100 µM (inactive). The GI50 (SW-620) was > 100 µM (inactive), the GI50 (SN12C) was > 100 µM (inactive) and the GI50 (OVCAR-5) was > 100 µM (inactive). The GI50 (MOLT-4) was > 100 µM (inactive), the GI50 (OVCAR-8) was > 100 µM (inactive) and the GI50 (PC-3) was > 100 µM (inactive). For the same compound, the GI50 (SK-MEL-28) was > 100 µM (inactive), the GI50 (MDA-MB-231) was > 100 µM (inactive) and the GI50 (HL-60) was 70.8 µM (inactive). For the same compound, the GI50 (SR) was > 100 µM (inactive), the GI50 (SK-OV-3) was 58.5 µM (inactive) and the GI50 (COLO 205) was > 100 µM (inactive). The GI50 (HCC 2998) was > 100 µM (inactive), the GI50 (MCF7) was > 100 µM (inactive) and the GI50 (SF-295) was > 100 µM (inactive). For the same compound, the GI50 (SNB-75) was > 100 µM (inactive), the GI50 (MDA-N) was > 100 µM (inactive) and the GI50 (SNB-19) was > 100 µM (inactive). For the same compound, the GI50 (NCI-H522) was > 100 µM (inactive), the GI50 (UACC-62) was > 100 µM (inactive) and the GI50 (UACC-257) was > 100 µM (inactive). For the same compound, the GI50 (MDA-MB-435) was > 100 µM (inactive), the GI50 (KM12) was > 100 µM (inactive) and the GI50 (HOP-62) was > 100 µM (inactive). The GI50 (SF-539) was > 100 µM (inactive), the GI50 (RPMI-8226) was > 100 µM (inactive) and the GI50 (HOP-92) was > 100 µM (inactive). The GI50 (HT-29) was > 100 µM (inactive), the GI50 (OVCAR-3) was > 100 µM (inactive) and the GI50 (A498) was > 100 µM (inactive).
For `CCn1cc(C(=O)O)c(=O)c2cc(F)c(N3CCN(CN4C(=O)/C(=N\NC(=O)c5ccncc5)c5cc(Cl)ccc54)CC3)cc21`, the GI50 (OVCAR-4) was 36.9 µM (inactive), the GI50 (NCI-H23) was 59.4 µM (inactive) and the GI50 (M14) was 54 µM (inactive). For the same compound, the GI50 (BT-549) was 91.6 µM (inactive), the GI50 (NCI-H226) was > 100 µM (inactive) and the GI50 (K562) was 18.7 µM (inactive). The GI50 (LOX IMVI) was 34.3 µM (inactive), the GI50 (786-0) was 38.6 µM (inactive) and the GI50 (Malme-3M) was 86.1 µM (inactive). The GI50 (DU-145) was 24 µM (inactive), the GI50 (Hs-578T) was 45.2 µM (inactive) and the GI50 (UO-31) was 4.83 µM (inactive). The GI50 (TK-10) was 24.7 µM (inactive), the GI50 (NCI/ADR-RES) was 79.6 µM (inactive) and the GI50 (HCT-116) was 58.6 µM (inactive). The GI50 (HCT-15) was 31.1 µM, the GI50 (U-251) was 33 µM (inactive) and the GI50 (IGROV-1) was 18.3 µM (inactive). For the same compound, the GI50 (ACHN) was 37.3 µM (inactive), the GI50 (SK-MEL-2) was 23 µM (inactive) and the GI50 (SK-MEL-5) was 42.2 µM (inactive). For the same compound, the GI50 (EKVX) was 32.6 µM (inactive), the GI50 (A549) was 57.3 µM (inactive) and the GI50 (NCI-H460) was 52.4 µM (inactive). The GI50 (T47D) was 29.4 µM (inactive), the GI50 (RXF 393) was 19.6 µM (inactive) and the GI50 (CAKI-1) was 23.7 µM (inactive). For the same compound, the GI50 (SF-268) was 61.4 µM (inactive), the GI50 (SW-620) was 23.4 µM (inactive) and the GI50 (SN12C) was 69.5 µM (inactive). For the same compound, the GI50 (OVCAR-5) was > 100 µM (inactive), the GI50 (MOLT-4) was 0.048 µM (active) and the GI50 (OVCAR-8) was 28.5 µM (inactive). The GI50 (PC-3) was 38.5 µM (inactive), the GI50 (SK-MEL-28) was 59.2 µM (inactive) and the GI50 (MDA-MB-231) was 52.7 µM (inactive). The GI50 (HL-60) was 15.8 µM (inactive), the GI50 (SR) was 2.34 µM (inactive) and the GI50 (SK-OV-3) was 24.9 µM (inactive). For the same compound, the GI50 (COLO 205) was 52.7 µM (inactive), the GI50 (HCC 2998) was 36 µM (inactive) and the GI50 (MCF7) was 28.2 µM (inactive). The GI50 (SF-295) was > 100 µM (inactive), the GI50 (SNB-75) was 25.5 µM (inactive) and the GI50 (MDA-N) was 50.6 µM (inactive). The GI50 (SNB-19) was 44.3 µM (inactive), the GI50 (NCI-H522) was 21.8 µM (inactive) and the GI50 (UACC-62) was 58.7 µM (inactive). For the same compound, the GI50 (UACC-257) was 37.6 µM (inactive), the GI50 (MDA-MB-435) was 28.6 µM (inactive) and the GI50 (KM12) was 40.3 µM (inactive). The GI50 (HOP-62) was 22.9 µM (inactive), the GI50 (SF-539) was 24.7 µM (inactive) and the GI50 (HOP-92) was 45.5 µM (inactive). For the same compound, the GI50 (HT-29) was 32.7 µM (inactive), the GI50 (OVCAR-3) was 39.1 µM (inactive) and the GI50 (A498) was > 100 µM (inactive).
For `CS(=O)(=O)N1CC(CCl)c2ccc(O)cc21` (stereo not given), the GI50 (OVCAR-4) was 2.86 µM (inactive), the GI50 (NCI-H23) was 2.02 µM (inactive) and the GI50 (BT-549) was 2.02 µM (inactive). The GI50 (NCI-H226) was 2.34 µM (inactive), the GI50 (K562) was 2.47 µM (inactive) and the GI50 (LOX IMVI) was 3.57 µM (inactive). For the same compound, the GI50 (786-0) was 3.31 µM (inactive), the GI50 (Malme-3M) was 2.19 µM (inactive) and the GI50 (DU-145) was 3.46 µM (inactive). For the same compound, the GI50 (Hs-578T) was 4.32 µM (inactive), the GI50 (UO-31) was 2.32 µM (inactive) and the GI50 (TK-10) was 2.32 µM (inactive). For the same compound, the GI50 (NCI/ADR-RES) was 2.56 µM (inactive), the GI50 (HCT-116) was 2.71 µM (inactive) and the GI50 (HCT-15) was 3.15 µM. The GI50 (U-251) was 2.74 µM (inactive), the GI50 (IGROV-1) was 2.07 µM (inactive) and the GI50 (ACHN) was 3.4 µM (inactive). The GI50 (SK-MEL-2) was 2.94 µM (inactive), the GI50 (SK-MEL-5) was 1.55 µM (inactive) and the GI50 (EKVX) was 5.31 µM (inactive). The GI50 (CCRF-CEM) was 1.58 µM (inactive), the GI50 (A549) was 3.19 µM (inactive) and the GI50 (NCI-H460) was 2.9 µM (inactive). The GI50 (T47D) was 7.4 µM (inactive), the GI50 (RXF 393) was 1.4 µM (inactive) and the GI50 (CAKI-1) was 2.42 µM (inactive). The GI50 (SF-268) was 0.155 µM (active), the GI50 (SW-620) was 2.6 µM (inactive) and the GI50 (SN12C) was 2.91 µM (inactive). For the same compound, the GI50 (OVCAR-5) was 3.63 µM (inactive), the GI50 (MOLT-4) was 2.09 µM (inactive) and the GI50 (OVCAR-8) was 2.08 µM (inactive). The GI50 (PC-3) was 2.17 µM (inactive), the GI50 (SK-MEL-28) was 3.4 µM (inactive) and the GI50 (MDA-MB-231) was 2.2 µM (inactive). For the same compound, the GI50 (HL-60) was 1.57 µM (inactive), the GI50 (SR) was 2.84 µM (inactive) and the GI50 (COLO 205) was 1.9 µM (inactive). The GI50 (HCC 2998) was 1.95 µM (inactive), the GI50 (MCF7) was 1.98 µM (inactive) and the GI50 (SF-295) was 2.95 µM (inactive). The GI50 (SNB-75) was 2.71 µM (inactive), the GI50 (MDA-N) was 1.52 µM (inactive) and the GI50 (NCI-H522) was 1.47 µM (inactive). The GI50 (UACC-62) was 4.17 µM (inactive), the GI50 (UACC-257) was 2.44 µM (inactive) and the GI50 (MDA-MB-435) was 1.89 µM (inactive). The GI50 (KM12) was 2.46 µM (inactive), the GI50 (HOP-62) was 3.56 µM (inactive) and the GI50 (SF-539) was 2.04 µM (inactive). The GI50 (RPMI-8226) was 2.03 µM (inactive), the GI50 (HOP-92) was 3.11 µM (inactive) and the GI50 (HT-29) was 2.86 µM (inactive). For the same compound, the GI50 (OVCAR-3) was 2.95 µM (inactive) and the GI50 (A498) was 1.83 µM (inactive).
